This passage reports IC50, EC50 and Ka results from ChEMBL document CHEMBL4138256, “Design, Synthesis, and Biological Activity of 1,2,3-Triazolobenzodiazepine BET Bromodomain Inhibitors” (ACS Med Chem Lett, 2017).

Assay [1] concerns the target T1, Bromodomain-containing protein 4 (Homo sapiens, UniProt O60885).
Description: Inhibition of human His-tagged Brd4 bromodomain 2 expressed in Escherichia coli BL21 (DE3) preincubated for 30 mins followed by addition of biotinylated acetyl-histone H4 peptide and measured after 1 hr by AlphaScreen assay
For assay [2], the target named is T1, Bromodomain-containing protein 4. The source holds these as a separate data set.
Description: Inhibition of human His-tagged Brd4 bromodomain 1 expressed in Escherichia coli BL21 (DE3) preincubated for 30 mins followed by addition of biotinylated acetyl-histone H4 peptide and measured after 1 hr by AlphaScreen assay
Another assay concerns HEL 92.1.7. In words: Antiproliferative activity against human HEL 92.1.7 cells after 72 hrs by Cell-TiterGlo assay. Type of assay: functional, cell-based. The settings on record: HEL 92.1.7, 72 h.
Assay [3] is described as follows: Antiproliferative activity against mouse 494H cells after 72 hrs by Cell-TiterGlo assay. Type of assay: functional, cell-based.
A further assay concerns CCRF-CEM. In words: Antiproliferative activity against human CCRF-CEM cells after 72 hrs by Cell-TiterGlo assay. The format is functional, cell-based.
Another assay relates to SUD4. Briefly: Antiproliferative activity against human SU-DHL4 cells after 72 hrs by Cell-TiterGlo assay. Type of assay: functional, cell-based. The following applies: SU-DHL-4, 72 h.
Assay [4] is described as follows: Antiproliferative activity against mouse 148I cells after 72 hrs by Cell-TiterGlo assay. Type of assay: functional, cell-based.
A further assay deals with HL-60. Briefly: Antiproliferative activity against human HL60 cells after 72 hrs by Cell-TiterGlo assay. Type of assay: functional, cell-based. The following applies: HL-60, 72 h.
The test system of a further assay is MV4-11. In words: Antiproliferative activity against human MV4-11 cells after 72 hrs by Cell-TiterGlo assay. The format is functional, cell-based. The settings on record: MV4-11, 72 h.
Another assay relates to RPMI-8226. In words: Antiproliferative activity against human RPMI8226 cells after 72 hrs by Cell-TiterGlo assay. The format is functional, cell-based. The following applies: RPMI-8226, 72 h.
For a further assay, the system named is Raji. In words: Antiproliferative activity against human Raji cells after 72 hrs by Cell-TiterGlo assay. Type of assay: functional, cell-based.
A short description of assay [5]: Antiproliferative activity against human MLL-AF9 cells after 72 hrs by Cell-TiterGlo assay. The format is functional, cell-based. The settings on record: MLL-AF9, 72 h.
The test system of the next assay is K562. Briefly: Antiproliferative activity against human K562 cells after 72 hrs by Cell-TiterGlo assay. The settings on record: K562, 72 h. Type of assay: functional, cell-based.
The test system of a further assay is DOHH-2. Briefly: Antiproliferative activity against human DOHH2 cells after 72 hrs by Cell-TiterGlo assay. The format is functional, cell-based. The following applies: DOHH-2, 72 h.
Assay [6] concerns the target Bromodomain-containing protein 3 (Homo sapiens, UniProt Q15059). Briefly: Inhibition of human His-tagged Brd3 bromodomain 1 expressed in Escherichia coli BL21 (DE3) preincubated for 30 mins followed by addition of biotinylated acetyl-histone H4 peptide and measured after 1 hr by AlphaScreen assay. (In general: Alpha assays give light when donor and acceptor beads are brought close together.)

For assay [7], the target named is T2, Bromodomain-containing protein 2 (Homo sapiens, UniProt P25440). Briefly: Inhibition of human His-tagged Brd2 bromodomain 2 expressed in Escherichia coli BL21 (DE3) preincubated for 30 mins followed by addition of biotinylated acetyl-histone H4 peptide and measured after 1 hr by AlphaScreen assay.
Target sequence in this assay (P25440 whole entry): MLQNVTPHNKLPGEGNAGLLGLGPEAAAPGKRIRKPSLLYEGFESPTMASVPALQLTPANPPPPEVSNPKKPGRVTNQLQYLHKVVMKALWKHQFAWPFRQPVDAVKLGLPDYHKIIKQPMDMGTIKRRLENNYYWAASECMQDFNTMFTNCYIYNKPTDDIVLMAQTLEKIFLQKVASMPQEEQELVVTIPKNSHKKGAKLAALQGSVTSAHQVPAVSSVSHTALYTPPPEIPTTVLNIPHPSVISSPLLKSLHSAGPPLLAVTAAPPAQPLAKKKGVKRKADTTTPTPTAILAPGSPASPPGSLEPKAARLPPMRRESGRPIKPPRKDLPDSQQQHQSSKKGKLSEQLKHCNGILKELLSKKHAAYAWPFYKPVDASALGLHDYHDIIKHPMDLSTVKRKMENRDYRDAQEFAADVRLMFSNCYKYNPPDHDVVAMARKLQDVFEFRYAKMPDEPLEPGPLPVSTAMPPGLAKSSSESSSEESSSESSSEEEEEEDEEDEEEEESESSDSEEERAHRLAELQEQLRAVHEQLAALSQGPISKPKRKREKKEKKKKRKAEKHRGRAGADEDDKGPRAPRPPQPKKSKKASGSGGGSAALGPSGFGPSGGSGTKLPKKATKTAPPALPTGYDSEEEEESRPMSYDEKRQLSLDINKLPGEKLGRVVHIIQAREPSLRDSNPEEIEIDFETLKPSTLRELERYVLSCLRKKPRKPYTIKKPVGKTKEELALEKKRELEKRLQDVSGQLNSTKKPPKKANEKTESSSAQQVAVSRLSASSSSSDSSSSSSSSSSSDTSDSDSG
The target in assay [8] is T2, Bromodomain-containing protein 2. In words: Inhibition of human His-tagged Brd2 bromodomain 1 expressed in Escherichia coli BL21 (DE3) preincubated for 30 mins followed by addition of biotinylated acetyl-histone H4 peptide and measured after 1 hr by AlphaScreen assay.
Target sequence in this assay (P25440 whole entry): as above
For assay [9] the target is unchanged.
Target sequence in this assay (P25440 whole entry, looked up): as the sequence (P25440 whole entry) above
Description: Binding affinity to His-tagged human Brd2 bromodomain 1 (1 to 473 residues) assessed as association rate constant by suface plasmon resonance assay
Assay [10] shares this target. The source holds these as a separate data set.
Target sequence in this assay (P25440 whole entry, looked up): as the sequence (P25440 whole entry) above
Description: Binding affinity to His-tagged human Brd2 bromodomain 2 (1 to 473 residues) assessed as association rate constant by surface plasmon resonance assay

Bromodomain-containing protein 3, sequence (Q15059 whole entry): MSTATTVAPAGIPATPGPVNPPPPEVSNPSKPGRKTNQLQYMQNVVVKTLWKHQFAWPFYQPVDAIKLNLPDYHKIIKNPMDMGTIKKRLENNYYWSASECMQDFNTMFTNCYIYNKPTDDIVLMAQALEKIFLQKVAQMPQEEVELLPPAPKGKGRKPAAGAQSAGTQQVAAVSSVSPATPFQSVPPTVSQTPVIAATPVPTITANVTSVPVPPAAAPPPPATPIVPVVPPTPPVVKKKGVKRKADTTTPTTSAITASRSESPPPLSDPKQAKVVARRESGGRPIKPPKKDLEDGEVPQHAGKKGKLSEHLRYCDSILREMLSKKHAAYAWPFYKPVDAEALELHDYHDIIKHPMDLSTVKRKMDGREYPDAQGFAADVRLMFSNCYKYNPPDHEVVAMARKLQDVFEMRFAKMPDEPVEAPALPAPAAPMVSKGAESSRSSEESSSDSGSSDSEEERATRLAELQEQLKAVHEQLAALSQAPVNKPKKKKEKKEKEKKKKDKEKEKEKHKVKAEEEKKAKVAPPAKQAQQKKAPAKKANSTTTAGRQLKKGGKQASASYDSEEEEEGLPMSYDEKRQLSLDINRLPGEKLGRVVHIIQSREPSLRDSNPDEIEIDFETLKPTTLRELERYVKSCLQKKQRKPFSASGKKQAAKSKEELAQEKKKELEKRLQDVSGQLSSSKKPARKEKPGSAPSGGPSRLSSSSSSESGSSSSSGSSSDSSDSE

On to `Cc1nnn2c1-c1ccc(C(=O)NS(C)(=O)=O)cc1N(c1ccc(Cl)cc1)CC2`, for which the IC50 (usually the concentration needed to halve the response being measured) in assay [1] came out at 7 nM; in assay [2], 13 nM.

Turning to `Cc1nnn2c1-c1ccc(C(=O)NCc3ccccc3)cc1N(c1ccc(Cl)cc1)CC2`, the figures for the IC50 in assay [1] and in assay [2] were 15 nM and 35 nM, respectively.

With `Cc1sc2c(c1C)C(c1ccc(Cl)cc1)=NC(CC(=O)OC(C)(C)C)c1nnc(C)n1-2` (stereo not drawn), the half-maximal effective concentration (EC50) (in general, the concentration that produces a half-maximal response) in the assay with HEL 92.1.7 is 180 nM; in assay [3], 122 nM; in the assay with CCRF-CEM, 2040 nM; with SUD4 it was 660 nM; in assay [4], 284 nM; with HL-60, 51 nM. Further, the half-maximal effective concentration (EC50) in the assay with MV4-11 was 39 nM; in the assay on RPMI-8226 it was 258 nM; in the assay with Raji, 330 nM; in assay [5] it was 64 nM; in the assay on K562, more than 10000 nM; in the assay on DOHH-2, 279 nM.

On to `Cc1nnn2c1-c1ccccc1N(c1ccc(Cl)cc1)CC2CCO` (stereo not drawn), for which the IC50 in assay [1] was found to be 36 nM; in [6], 44 nM; in assay [2], 52 nM; in assay [7], 45 nM; in assay [8] it was 340 nM.

On to `Cc1nnn2c1-c1ccccc1N(c1ccc(Cl)cc1)C[C@H]2C`, for which the half-inhibitory concentration (IC50) in assay [7] stood at 25 nM; in assay [8], 38 nM.

With `Cc1nnn2c1-c1ccc(C(=O)N[C@@H](C)c3ccc(F)cc3)cc1N(c1ccc(Cl)cc1)CC2`, in assay [6], the IC50 worked out at 23 nM.

In assay [6], `Cc1nnn2c1-c1ccc(C(=O)Nc3ccccc3)cc1N(c1ccc(Cl)cc1)CC2` displayed a half-inhibitory concentration (IC50) of 14 nM.

`Cc1nnn2c1-c1ccc(C(=O)N[C@H](C)c3ccccc3)cc1N(c1ccc(Cl)cc1)CC2` had a half-maximal inhibitory concentration (IC50) in [6] of 13 nM.

As for `Cc1nnn2c1-c1ccc(-c3nn[nH]n3)cc1N(c1ccc(Cl)cc1)CC2`, the IC50 in assay [1] was determined as 2 nM; in [2], 3 nM.

In the case of `Cc1nnn2c1-c1ccccc1N(Cc1cccc(Br)c1)CC2`, the IC50 in [1] was 17 nM; in assay [6], 21 nM; in assay [2] it was 29 nM; in assay [7] it was 44 nM; in assay [8] it was 129 nM.

In the case of `Cc1nnn2c1-c1ccc(Cn3cccn3)cc1N(c1ccc(Cl)cc1)CC2`, the values for the IC50 in assay [1], in assay [6] and in assay [2] were 38 nM, 52 nM and 45 nM, respectively.

As to `Cc1nnn2c1-c1ccc(C(O)C(F)(F)F)cc1N(c1ccc(Cl)cc1)CC2` (stereo not drawn), the IC50 in assay [1] came out at 23 nM; in assay [2] it was 43 nM.

For the molecule `Cc1nnn2c1-c1ccccc1N(c1ccccc1)CC2`, the IC50 lay within 12 to 21.5 nM in assay [1] and 28 to 39.4 nM in [2].

For the molecule `Cc1nnn2c1-c1ccc(C(N)=O)cc1N(c1ccc(Cl)cc1)CC2`, the IC50 is 2 nM in assay [1] and 6 nM in [2].

For the molecule `Cc1nnn2c1-c1ccccc1N(c1ccccc1)C(=O)C2`, the IC50 in assay [1], in [6], in assay [2], in assay [7] and in [8] was more than 10000 nM in each case.

Regarding `Cc1nnn2c1-c1ccc(C(=O)O)cc1N(c1ccc(Cl)cc1)CC2`, the IC50 in [6] was determined as 16 nM; in assay [7], 50 nM; in assay [8], 185 nM.

The molecule `Cc1nnn2c1-c1ccc(C(=O)N[C@@H](C)c3ccccc3)cc1N(c1ccc(Cl)cc1)CC2` registered an IC50 in assay [6] of 12 nM.

For the molecule `Cc1ccc(-c2ccc3c(c2)N(c2ccc(Cl)cc2)CCn2nnc(C)c2-3)cn1`, the values for the IC50 in assay [1], in [6] and in assay [2] were 7 nM, 10 nM and 16 nM, respectively.

Take `Cc1nnn2c1-c1ccc(C(=O)NC(c3ccccc3)c3ccccc3)cc1N(c1ccc(Cl)cc1)CC2`: the IC50 in [6] is 39 nM; in [7], 44 nM; in assay [8], 151 nM.

In the case of `Cc1nnn2c1-c1ccc(C(=O)NS(=O)(=O)c3ccccc3)cc1N(c1ccc(Cl)cc1)CC2`, the IC50 was found to be 10 nM in [1]; 21 nM in assay [6]; 21 nM in assay [2]; 25 nM in assay [7]; 54 nM in assay [8].

On to `Cc1nnn2c1-c1ccc(C#N)cc1N(c1ccc(Cl)cc1)CC2`, for which the values for the IC50 in [1] and in assay [2] were 13 nM and 11 nM, respectively.

For `Cc1nnn2c1-c1ccc(-c3ccc(N)nc3)cc1N(c1ccc(Cl)cc1)CC2`, the IC50 in assay [1] was found to be 6 nM; in assay [6] it was 9 nM; in assay [2] it was 13 nM. Also, the EC50 with HEL 92.1.7 worked out at 400 nM; in assay [3], 166 nM; in the assay with CCRF-CEM, 1360 nM; in the assay on SUD4 it was 977 nM; in assay [4], 1280 nM; with HL-60, 152 nM. The EC50 with MV4-11 was 140 nM; in the assay on RPMI-8226, 631 nM; in the assay on Raji, 560 nM; in assay [5], 77 nM; in the assay on K562 it was more than 10000 nM; in the assay on DOHH-2, 561 nM. Also, the results for the Ka in assay [9] and in assay [10] were 2.9 ×10⁵ /M/s and 2.62 ×10⁵ /M/s, respectively.

With `Cc1nnn2c1-c1ccc(-c3cc[nH]n3)cc1N(c1ccc(Cl)cc1)CC2`, the IC50 in assay [1] is 7 nM; in assay [6], 10 nM; in [2] it was 14 nM. The EC50 in the assay on HEL 92.1.7 was found to be 720 nM; in assay [3] it was 194 nM; in the assay on CCRF-CEM, 2220 nM; in the assay with SUD4, 570 nM; in assay [4], 973 nM; with HL-60 it was 139 nM. Besides, the EC50 is 200 nM in the assay on MV4-11; 495 nM with RPMI-8226; 780 nM in the assay on Raji; 111 nM in assay [5]; more than 10000 nM in the assay on K562; 285 nM in the assay on DOHH-2.

Take `Cc1nnn2c1-c1ccccc1N(c1ccc(Cl)cc1)C[C@@H]2C`: the figures for the IC50 in assay [7] and in assay [8] were 34 nM and 53 nM, respectively.
